Test results taken from PubChem BioAssay AID2060489 (Molecular Pharmacology Branch, DTP, NCI, 2025).
pIC50: −log10 of the molar value.

Tested on: 922993-354-T-J3-PDC complex spheroids, viability
Assay: Anticancer human tumor 922993-354-T-J3-PDC patient-derived endometrial carcinoma cell line growth inhibition [GQUAD]
Settings: for pIC50: curve of first compound; for viability, T/C: stronger effect = lower value
In short: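 Tumor cells were grown as complex spheroids with HUVEC endothelial cells and mesenchymal stem cells as stroma. G-quadruplex stabilizers were combined with targeted agents over half-log dilutions from near the clinical Cmax, or from 10 microM.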

[1] = second compound 0.0316 µM, first compound 0.0316 µM
[2] = second compound 0.0316 µM, first compound 0.316 µM
[3] = second compound 0.1 µM, first compound 0.0316 µM
[4] = second compound 0.1 µM, first compound 0.316 µM
[5] = second compound 0.316 µM, first compound 0.0316 µM
[6] = second compound 0.316 µM, first compound 0.316 µM
[7] = second compound 1 µM, first compound 0.0316 µM
[8] = second compound 1 µM, first compound 0.316 µM
[9] = second compound 3.16 µM, first compound 0.0316 µM
[10] = second compound 3.16 µM, first compound 0.316 µM
[11] = second compound 10 µM, first compound 0.0316 µM
[12] = second compound 10 µM, first compound 0.316 µM
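Further: spheroids exposed to compounds for seven days.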
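Wherever viability, T/C is given: 100% = DMSO vehicle control viability.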

Structure (SMILES): CC[C@@]1(O)C(=O)OCc2c1cc1n(c2=O)Cc2cc3c(CN(C)C)c(O)ccc3nc2-1 + CN(C)c1ccc(Nc2c3ccc(NC(=O)CCN4CCCC4)cc3nc3cc(NC(=O)CCN4CCCC4)ccc23)cc1
- pIC50 (second compound 0.0316 µM): 6.55
- pIC50 (second compound 0.1 µM): < 6.50
- pIC50 (second compound 0.316 µM): 6.54
- pIC50 (second compound 1 µM): 6.58
- pIC50 (second compound 3.16 µM): 6.52
- pIC50 (second compound 10 µM): < 6.50
- viability, T/C (second compound 0.0316 µM, first compound 0.000999 µM): 100%
- viability, T/C (second compound 0.0316 µM, first compound 0.00316 µM): 74.3%
- viability, T/C (second compound 0.0316 µM, first compound 0.00999 µM): 99.8%
- viability, T/C [1]: 91.9%
- viability, T/C (second compound 0.0316 µM, first compound 0.0999 µM): 77.3%
- viability, T/C [2]: 46.6%
- viability, T/C (second compound 0.1 µM, first compound 0.000999 µM): 120%
- viability, T/C (second compound 0.1 µM, first compound 0.00316 µM): 110%
- viability, T/C (second compound 0.1 µM, first compound 0.00999 µM): 89.3%
- viability, T/C [3]: 82.7%
- viability, T/C (second compound 0.1 µM, first compound 0.0999 µM): 88.9%
- viability, T/C [4]: 43.4%
- viability, T/C (second compound 0.316 µM, first compound 0.000999 µM): 90.5%
- viability, T/C (second compound 0.316 µM, first compound 0.00316 µM): 98.4%
- viability, T/C (second compound 0.316 µM, first compound 0.00999 µM): 79.2%
- viability, T/C [5]: 84%
- viability, T/C (second compound 0.316 µM, first compound 0.0999 µM): 92.5%
- viability, T/C [6]: 46.2%
- viability, T/C (second compound 1 µM, first compound 0.000999 µM): 100%
- viability, T/C (second compound 1 µM, first compound 0.00316 µM): 106%
- viability, T/C (second compound 1 µM, first compound 0.00999 µM): 97.7%
- viability, T/C [7]: 94.5%
- viability, T/C (second compound 1 µM, first compound 0.0999 µM): 76.8%
- viability, T/C [8]: 45.1%
- viability, T/C (second compound 3.16 µM, first compound 0.000999 µM): 101%
- viability, T/C (second compound 3.16 µM, first compound 0.00316 µM): 109%
- viability, T/C (second compound 3.16 µM, first compound 0.00999 µM): 99.6%
- viability, T/C [9]: 117%
- viability, T/C (second compound 3.16 µM, first compound 0.0999 µM): 115%
- viability, T/C [10]: 47.6%
- viability, T/C (second compound 10 µM, first compound 0.000999 µM): 109%
- viability, T/C (second compound 10 µM, first compound 0.00316 µM): 115%
- viability, T/C (second compound 10 µM, first compound 0.00999 µM): 110%
- viability, T/C [11]: 97.3%
- viability, T/C (second compound 10 µM, first compound 0.0999 µM): 115%
- viability, T/C [12]: 59.4%

Structure (SMILES): C=CC(=O)N1CCN(c2nc(=O)n(-c3c(C)ccnc3C(C)C)c3nc(-c4c(O)cccc4F)c(F)cc23)C(C)C1 (centres undefined) + Cc1[nH]c2ccc(F)cc2c1-c1nc2c3cccnc3c3ncccc3c2[nH]1
- pIC50 (second compound 0.0316 µM): < 5.00
- pIC50 (second compound 0.1 µM): < 5.00
- pIC50 (second compound 0.316 µM): < 5.00
- pIC50 (second compound 1 µM): < 5.00
- pIC50 (second compound 3.16 µM): < 5.00
- pIC50 (second compound 10 µM): < 5.00
- viability, T/C [1]: 94.6%
- viability, T/C (second compound 0.0316 µM, first compound 0.1 µM): 86%
- viability, T/C [2]: 94.8%
- viability, T/C (second compound 0.0316 µM, first compound 1 µM): 101%
- viability, T/C (second compound 0.0316 µM, first compound 3.16 µM): 111%
- viability, T/C (second compound 0.0316 µM, first compound 10 µM): 116%
- viability, T/C [3]: 106%
- viability, T/C (second compound 0.1 µM, first compound 0.1 µM): 69.4%
- viability, T/C [4]: 99.3%
- viability, T/C (second compound 0.1 µM, first compound 1 µM): 127%
- viability, T/C (second compound 0.1 µM, first compound 3.16 µM): 92%
- viability, T/C (second compound 0.1 µM, first compound 10 µM): 98.7%
- viability, T/C [5]: 130%
- viability, T/C (second compound 0.316 µM, first compound 0.1 µM): 95%
- viability, T/C [6]: 117%
- viability, T/C (second compound 0.316 µM, first compound 1 µM): 118%
- viability, T/C (second compound 0.316 µM, first compound 3.16 µM): 114%
- viability, T/C (second compound 0.316 µM, first compound 10 µM): 113%
- viability, T/C [7]: 92.9%
- viability, T/C (second compound 1 µM, first compound 0.1 µM): 124%
- viability, T/C [8]: 133%
- viability, T/C (second compound 1 µM, first compound 1 µM): 112%
- viability, T/C (second compound 1 µM, first compound 3.16 µM): 93.6%
- viability, T/C (second compound 1 µM, first compound 10 µM): 107%
- viability, T/C [9]: 114%
- viability, T/C (second compound 3.16 µM, first compound 0.1 µM): 91.2%
- viability, T/C [10]: 105%
- viability, T/C (second compound 3.16 µM, first compound 1 µM): 104%
- viability, T/C (second compound 3.16 µM, first compound 3.16 µM): 96.2%
- viability, T/C (second compound 3.16 µM, first compound 10 µM): 88%
- viability, T/C [11]: 88.7%
- viability, T/C (second compound 10 µM, first compound 0.1 µM): 103%
- viability, T/C [12]: 81.3%
- viability, T/C (second compound 10 µM, first compound 1 µM): 90.7%
- viability, T/C (second compound 10 µM, first compound 3.16 µM): 103%
- viability, T/C (second compound 10 µM, first compound 10 µM): 87.1%
